Measured values as given in the NIST ThermoML archive (doi:10.1016/j.jct.2011.11.032).
± gives the expanded uncertainty stated by the source.

Test: molar enthalpy of vaporization or sublimation
Conditions: 298.15 K; Liquid; Static calorimetry

| molar enthalpy [kcal/mol] | Structure (SMILES) |
| --- | --- |
| 10.8 ± 0.311 | COc1ccccn1 [2-methoxypyridine] |
| 13.7 ± 0.311 | COc1ccncc1 [4-methoxypyridine] |
| 12.9 ± 0.239 | COc1cccc(OC)n1 [2,6-dimethoxypyridine] |
